Measured values from ChEMBL document CHEMBL1122101, “Synthesis and tissue distribution study of iodine-labeled benzyl- and xylylamines” (J Med Chem, 1982).

Key:
Rattus norvegicus [1] = assay: Evaluated for biodistribution in rat brain after 6 min of administration; type: ADME, organism-based; conditions: in vivo, 0.1 h
Rattus norvegicus [2] = assay: Evaluated for biodistribution in rat lung after 2 min of administration; type: ADME, organism-based; conditions: in vivo
Rattus norvegicus [3] = assay: Evaluated for biodistribution in rat lung after 6 min of administration; type: ADME, organism-based; conditions: in vivo, 0.1 h
Rattus norvegicus [4] = assay: Evaluated for biodistribution in rat liver after 1 min of administration; type: ADME, organism-based; conditions: in vivo
Rattus norvegicus [5] = assay: Evaluated for biodistribution in rat heart after 6 min of administration; type: ADME, organism-based; conditions: in vivo, 0.1 h
Rattus norvegicus [6] = assay: Evaluated for biodistribution in rat lung after 1 min of administration; type: ADME, organism-based; conditions: in vivo
Rattus norvegicus [7] = assay: Evaluated for biodistribution in rat brain after 1 min of administration; type: ADME, organism-based; conditions: in vivo
Rattus norvegicus [8] = assay: Evaluated for biodistribution in rat thyroid after 6 min of administration; type: ADME, organism-based, Thyroid gland; conditions: in vivo, 0.1 h
Rattus norvegicus [9] = assay: Evaluated for biodistribution in rat kidney after 6 min of administration; type: ADME, organism-based; conditions: in vivo, 0.1 h
Rattus norvegicus [10] = assay: Evaluated for biodistribution in rat heart after 1 min of administration; type: ADME, organism-based; conditions: in vivo
Rattus norvegicus [11] = assay: Evaluated for biodistribution in rat heart after 2 min of administration; type: ADME, organism-based; conditions: in vivo
Rattus norvegicus [12] = assay: Evaluated for biodistribution in rat blood after 1 min of administration; type: ADME, organism-based; conditions: in vivo
Rattus norvegicus [13] = assay: Evaluated for biodistribution in rat thyroid after 2 min of administration; type: ADME, organism-based, Thyroid gland; conditions: in vivo
Rattus norvegicus [14] = assay: Evaluated for biodistribution in rat blood after 6 min of administration; type: ADME, organism-based; conditions: in vivo, 0.1 h
Rattus norvegicus [15] = assay: Evaluated for biodistribution in rat kidney after 2 min of administration; type: ADME, organism-based; conditions: in vivo
Rattus norvegicus [16] = assay: Evaluated for biodistribution in rat kidney after 1 min of administration; type: ADME, organism-based; conditions: in vivo
Rattus norvegicus [17] = assay: Evaluated for biodistribution in rat brain after 2 min of administration; type: ADME, organism-based; conditions: in vivo
Rattus norvegicus [18] = assay: Evaluated for biodistribution in rat thyroid after 1 min of administration; type: ADME, organism-based, Thyroid gland; conditions: in vivo
Rattus norvegicus [19] = assay: Evaluated for biodistribution in rat liver after 6 min of administration; type: ADME, organism-based; conditions: in vivo, 0.1 h
Rattus norvegicus [20] = assay: Evaluated for biodistribution in rat liver after 2 min of administration; type: ADME, organism-based; conditions: in vivo
Rattus norvegicus [21] = assay: Evaluated for biodistribution in rat blood after 2 min of administration; type: ADME, organism-based; conditions: in vivo
[22] = Evaluated for the carrier level on brain uptake at 40 mg/kg dose in rat; type: ADME, organism-based; set-up: dose 40 mg/kg; conditions: in vivo
[23] = Evaluated for the carrier level on brain uptake at 0.4 mg/kg dose in rat; type: ADME, organism-based; set-up: dose 0.4 mg/kg; conditions: in vivo
[24] = Evaluated for the carrier level on brain uptake at 4 mg/kg dose in rat; type: ADME, organism-based; set-up: dose 4 mg/kg; conditions: in vivo
[25] = Evaluated for the carrier level on brain uptake at 0.04 mg/kg dose in rat; type: ADME, organism-based; set-up: dose 0.04 mg/kg; conditions: in vivo

Biodistribution (Rattus norvegicus [1]) [%] | Biodistribution (Rattus norvegicus [2]) [%] | Biodistribution (Rattus norvegicus [3]) [%] | Biodistribution (Rattus norvegicus [4]) [%] | Biodistribution (Rattus norvegicus [5]) [%] | Biodistribution (Rattus norvegicus [6]) [%] | Biodistribution (Rattus norvegicus [7]) [%] | Biodistribution (Rattus norvegicus [8]) [%] | Biodistribution (Rattus norvegicus [9]) [%] | Biodistribution (Rattus norvegicus [10]) [%] | Biodistribution (Rattus norvegicus [11]) [%] | Biodistribution (Rattus norvegicus [12]) [%] | Biodistribution (Rattus norvegicus [13]) [%] | Biodistribution (Rattus norvegicus [14]) [%] | Biodistribution (Rattus norvegicus [15]) [%] | Biodistribution (Rattus norvegicus [16]) [%] | Biodistribution (Rattus norvegicus [17]) [%] | Biodistribution (Rattus norvegicus [18]) [%] | Biodistribution (Rattus norvegicus [19]) [%] | Biodistribution (Rattus norvegicus [20]) [%] | further results | SMILES
0.59 | 31.98 | 8.71 | 8.38 | 0.83 | 13.02 | 0.64 | 0.45 | 3.4 | 1.99 | 2.18 | 1.76 | 0.18 | 1.33 | 6.93 | 6.71 | 0.62 | 0.27 | 5.17 | 10.22 | Biodistribution (Rattus norvegicus [21]): 6.42% | CC(C)NCc1ccc(I)c(CNC(C)C)c1
0.022 | 2.9 | 0.04 | 1.92 | 0.014 | 0.19 | 0.07 | 0.035 | 0.34 | 0.06 | 0.59 | 1.35 | 0.11 | 0.35 | 10.12 | 1.03 | 2.42 | 0.01 | 0.45 | 11.81 | Biodistribution (Rattus norvegicus [21]): 7.01% | CN(C)Cc1ccccc1I
0.7 | 26.54 | 1.75 | 13.51 | 0.18 | 6.65 | 1.47 | 0.11 | 1.97 | 0.51 | 3.19 | 1.6 | 0.22 | 0.77 | 7.33 | 7.75 | 1.7 | 0.15 | 9.2 | 12.5 | Biodistribution (Rattus norvegicus [21]): 4.11% | Ic1ccc(CN2CCCCC2)cc1CN1CCCCC1
1.51 | 22.63 | 1.96 | 18.31 | 0.19 | 4.36 | 2.36 | 0.14 | 2.98 | 0.44 | 2.76 | 0.83 | 0.28 | 0.42 | 7.69 | 6.19 | 2.4 | 0.11 | 7.81 | 9.52 | Brain uptake [22]: 2.43%; Brain uptake [23]: 3.03%; Brain uptake [24]: 2.09%; Brain uptake [25]: 2.67%; Biodistribution (Rattus norvegicus [21]): 3.52% | CN(C)Cc1ccc(I)c(CN(C)C)c1
